Test results: patent US12616681B2, “Compositions and methods for treating renal injury” (priority 2019, dated 2026)

Key:
[1] = tested on: human renal proximal tubular epithelial cells (hRPTECs); assay: hRPTEC apoptosis by flow cytometry with iodixanol; assay type: cell-based; settings: drug with iodixanol 50 mgI/mL, 24 h
Description: Human renal proximal tubular epithelial cells (hRPTECs) were purchased from the American Type Culture Collection (#PCS-400-010TM, Manassas, VA, USA). These cells were grown in 75 cm^2 flasks in Renal Epithelial Cell Basal Medium (PCS-400-030TM, ATCCVR) supplemented with Renal Epithelial Cell Growth Kit (PCS-400-040TM, ATCCVR).
After the treatment described in the section above, the hRPTECs were pelleted by centrifugation at 1800 rpm for 10 min and incubated with annexin V fluorescein isothiocyanate and propidium iodide using an Apoptosis Detection Kit I (#556547, BD Biosciences, San Jose, CA, USA) according to the manufacture's instruction. Then quantification was conducted using a FACSC flow cytometer with Cell Quest software (BD Biosciences).

[2] = tested on: contrast-induced acute kidney injury (CIAKI) mice; assay: CIAKI mouse model: renal blood flow (laser Doppler flux); assay type: in vivo, C57/BL6 mice; settings: CM + drug, 48 h after CM
Description: Total RBF was assessed by measuring renal Doppler flux using noninvasive laser Doppler flowmetry (PeriFlux System 5000, Perimed AB, Sweden). Laser Doppler probes were placed on the kidney surface to measure the renal flux. The flux was measured 48 h after CM administration. The relative increase represented the percentage increase in renal blood flow from baseline to peak for each test. Statistical significance was set as p<0.05.

[3] = tested on: contrast-induced acute kidney injury (CIAKI) mice; assay: CIAKI mouse model: necrotic and apoptotic cell death, gross findings; assay type: in vivo, C57/BL6 mice; settings: 48 h after CM
Description: Kidneys were harvested at 48 h after the CM injection, fixed in 4% phosphate-buffered formalin, and embedded in paraffin. To evaluate necrosis, […] paraffin sections were stained with hematoxylin and eosin. Tubular injury was scored semi-quantitatively according to a system by a pathologist who examined at least 20 separate fields (400× magnification) in the outer medulla, which is the zone most sensitive to ischemic injury. The scoring system was as follows: 0, no damage; 1, patchy isolated unicellular necrosis; 2, tubular necrosis <25%; 3, tubular necrosis 25-50%; and 4, tubular necrosis >50%. At least 20 consecutive high-power fields per section were scored by two operators blind to the details of the experiment. To analyze the frequency of apoptosis, […] paraffin sections were subjected to terminal deoxynucleotidyl transferase-mediated dUTP nick-end labeling (TUNEL) assay (Millipore, Temecula, CA, USA) according to the manufacturer's protocol. Four […] paraffin sections were incubated with the TUNEL reaction mixture at 37° C. for 1 h, followed by incubation with a horseradish peroxidase-conjugated detection antibody. The signals were visualized using diaminobenzidine (Sigma-Aldrich). After counterstaining with Mayer's hematoxylin, TUNEL-positive cells were counted in at least five separate fields (640× magnification) in the outer medulla, and the apoptosis index (%, number of apoptosis cells/total number of cells) was calculated using GENASIS software.

[4] = tested on: human renal proximal tubular epithelial cells (hRPTECs); assay: hRPTEC cell viability (MTT assay) with iodixanol; assay type: cell-based; settings: iodixanol 50 mgI/mL, 24 h; PGE1 100 ng/mL, PGE2 100 nM vs CM vehicle; CM vs normal control
Description: 3-(4,5-Dimethyl thiazol-2-yl)-2,5-diphenyl tetrazolium bromide (MTT) assay was used to assess cell viability. The hRPTECs were cultivated in 96-well plates at a density of 10^5 cells/mL and then incubated for 24 h. […] Then, 10 µM MTT (Sigma-Aldrich) was added to each well for an additional 4 h. The blue MTT formazan precipitate was dissolved in 100 mL dimethyl sulfoxide. The absorbance at 540 nm was measured with a multi-well plate reader. Cell viability was expressed as a percentage of the no-treatment cells, as the mean value±standard deviation of the six independent experiments.

[5] = rapidly degraded by 15-PGDH; cited from earlier work
[6] = tested on: contrast-induced acute kidney injury (CIAKI) mice; assay: CIAKI mouse model: AMP and adenosine levels in renal tissue; assay type: in vivo, C57/BL6 mice; settings: 48 h after CM
Description: 48 h after CM administration, serum and kidney tissues were harvested. The adenosine levels in the serum and kidney tissues were measured using high-performance liquid chromatography.

SMILES: CCCCC[C@H](O)/C=C/[C@H]1[C@H](O)CC(=O)[C@@H]1C/C=C\CCCC(=O)O [PGE2, prostaglandin E2]
- apoptosis rate of hRPTECs [1]: 19.43±1.38%
- RBF (renal Doppler flux) [2]: 541.4±22.65
- TUNEL-positive cell proportions vs CIAKI mice, in words [3]: significantly lower
- vascular congestion in the outer medullary region (gross findings) [3]: less-congested
- microscopic renal injury score ([3]; CM + drug, score 0-4): 1.55±0.14
- cell viability (MTT), in words [4]: did not show any difference
- estimated half-life [5]: less than 15 s
- AMP level compared to CIAKI mice, in words [6]: increased
- adenosine level compared to CIAKI mice, in words [6]: increased
